Data on 18 molecules can be found in US20210205292A1, “INHIBITORS OF CREB-CBP INTERACTION FOR TREATMENT OF LEUKEMIA” (The Board of Trustees of the Leland Stanford Junior …, priority 2016, published 2021).

Experiment [1] deals with Nalm6 (human ALL cell line). In words: CellTiter Glo assay in Nalm6 cells. Type of experiment: cell-based. On the procedure: (§1) The compounds prepared according to the methods described herein and tested for activity in the CellTiter Glo assay in HL60 (Human promyelocytic leukemia cell line), Jukat (human T lymphocyte cell line for acute T cell leukemia) and/or Nalm6 (human ALL cell line) cells.
(§2) Compounds were prepared according to the methods described herein and tested for activity in the CellTiter Glo assay in HL60 (Human promyelocytic leukemia cell line), Jukat (human T lymphocyte cell line for acute Tcell leukemia) and/or Nalm6 (human ALL cell line) cells.
On the technique in general: ATP-based viability assays read luminescence as a measure of living cells.

For experiment [2], the system named is HL60 (Human promyelocytic leukemia cell line). In words: CellTiter Glo assay in HL60 cells. It is filed as cell-based. The method, then:
as §1, §2

Experiment [3] relates to Jukat (human T lymphocyte cell line for acute T cell leukemia). The experiment can be described thus: CellTiter Glo assay in Jukat cells. It is filed as cell-based. The method, then:
as §1, §2

A further experiment has as its system HL-60 cells. In words: HL-60 viability, combination of Compound A with kinase inhibitors. It is filed as cell-based, human. The settings on record: 48 hours.
The next experiment relates to CREB phosphorylation. The experiment can be described thus: CREB phosphorylation in HL-60 cells. It is filed as cell-based, human. The settings on record: HL-60 cells; BI-D1870 5 μM, SB202190 10 μM, U0126 10 μM. An excerpt:
FIG. 12, panels A-D, illustrates the results of CyTOF Phenotyping and Compound A Combination Studies. […] Viability for Compound A treatment alone was 87.4±7.3%, versus 55.3±3.4% and 49.5±2.3% when combined with ERK and RSK inhibitors, respectively (* indicates p<0.05 compared to cells treated with Compound A alone). Panel D) Compound A inhibits CREB phosphorylation in the presence of serum. HL-60 cells were serum-starved then stimulated with serum.
Cells were lysed in RIPA buffer (Sigma), and the protein concentrations were determined by BCA assay (Thermo Scientific Pierce). Lysates were solubilized in 6×SDS PAGE buffer and […] of protein was loaded into 6-15% SDS PAGE gels, pheresed, and then transferred onto […] PVDF membrane (Millipore). Primary antibodies were applied at a dilution of 1:1000. Anti-Bcl-2, -Bax, -Mcl-1, -Bcl-XL, -Cyclin A and -Cyclin D1 antibodies were purchased from Cell Signaling Technologies. Anti-total acetylated histone and -ac-H3K27 were purchased from Santa Cruz Biotechnologies. Anti-actin and -CREB antibodies were purchased from upstate. Secondary antibodies were used at a 1:2500 dilution and purchased from Thermo Scientific/Pierce. WesternBright ECL was used for image acquisition on Image Lab software (Bio-Rad).

For another experiment, the system named is Caspase-3. In words: Caspase-3 protease activity (ApoTarget kit). It is filed as cell-based. Conditions: etoposide control. An excerpt: The ApoTarget Caspase-3 Protease Activity Kit (Invitrogen) was used per manufacturer's instructions.
The balance between pro- and anti-apoptotic protein expression contributes to cell fate decisions. CREB regulates the expression of several anti-apoptotic proteins, including Bcl-2, Bcl-XL and Mcl-1. Bcl-2 expression in particular is known to mediate resistance to chemotherapy and influence clinical outcome in a number of cancer types, including AML. The ability of Compound A to cause apoptosis by disrupting the CREB-driven expression of these anti-apoptotic proteins was examined. In HL-60 cells treated with Compound A, apoptosis is induced in a dose- and time-dependent manner. […] Compound A elicited apoptosis through the intrinsic apoptosis pathway, with activation of Caspase-3 (FIG. 5, panel B) and detectable Caspase-9 cleavage (data not shown). Relative caspase-3 activity at 24 hours: 5.4±0.8 for etoposide, 1±0.78, 0.93±0.71, 1.02±0.67, 2.9±0.58, 5.1±0.63, 4.1±0.71 for 0, 1, 1.5, 2, 2.5 and 3 mM Compound A, respectively. Activity at 72 hours: 1.2±0.05 for etoposide, 1.0±0.02, 1.9±0.03, 3.7±0.04, 4.4±0.05, 2.1±0.03, 1.9±0.02 for 0, 1, 1.5, 2, 2.5 and 3 mM Compound A, respectively. The transcription of Bcl-2 decreased following 72 hours of 2 mM Compound A treatment (FIG. 5, panel C), and this was verified by Western blot analysis (FIG. 5, panel D). […] To confirm whether loss of Bcl-2 function alone is sufficient to induce apoptosis in AML cells, HL-60 cells were treated with the validated Bcl-2 inhibitor ABT-737 (50 to 200 nM). […] Bcl-2 levels are influenced by CREB expression in these AML cell lines (FIG. 11, panel C).

SMILES strings stand for the structures.

By IC50 is commonly meant the concentration that gives 50% inhibition. A high value points to weaker potency in that assay.

For the molecule `N#Cc1ccc(NC(=O)c2cc(-c3ccco3)c3cccnc3c2O)cc1` [Compound 72], the half-inhibitory concentration (IC50) in experiment [1] (NALM-6, Table 5) lay in the range of 0.1 to 1 µM; in experiment [2] (HL-60, Table 5) it was 0.1 to 1 µM; in experiment [3] (Table 5), 0.1 to 1 µM.
On to `Cc1cc(C(=O)Nc2ccc(C#N)cc2)c(O)c2ncccc12` [Compound 73], for which the IC50 in experiment [1] (NALM-6, Table 5) fell in the range of 0.1 to 1 µM; in experiment [2] (HL-60, Table 5), 1 to 10 µM; in experiment [3] (Table 5), 0.1 to 1 µM.
As for `N#Cc1ccc(NC(=O)c2ccc3cccnc3c2O)c(Cl)c1` [Compound 77], the IC50 in experiment [1] (NALM-6, Table 5) was in the range of 0.1 to 1 µM; in experiment [2] (HL-60, Table 5), 0.1 to 1 µM; in experiment [3] (Table 5), 0.1 to 1 µM.
For the molecule `Cc1cc(C#N)ccc1NC(=O)c1ccc2cccnc2c1O` [Compound 78], the IC50 in experiment [1] (NALM-6, Table 5) was less than 0.1 µM; in experiment [2] (HL-60, Table 5) it was 0.1 to 1 µM; in experiment [3] (Table 5), 0.1 to 1 µM.
In the case of `Cc1cccc(Cl)c1NC(=O)c1ccc2cccnc2c1O` [Compound 79], the IC50 in experiment [1] (NALM-6, Table 5) fell in the range of 1 to 10 µM; in experiment [2] (HL-60, Table 5) it was 1 to 10 µM; in experiment [3] (Table 5), 1 to 10 µM.
In the case of `N#Cc1ccc(Cl)c(NC(=O)c2ccc3cccnc3c2O)c1` [Compound 80], the IC50 in experiment [1] (NALM-6, Table 5) is 0.1 to 1 µM; in experiment [2] (HL-60, Table 5) it was 0.1 to 1 µM; in experiment [3] (Table 5), 0.1 to 1 µM.
On to `O=C(Nc1ccc(Cl)cc1Cl)c1ccc2cccnc2c1O` [Compound 81], for which the IC50 lay in the range of 0.1 to 1 µM in experiment [1] (NALM-6, Table 5); 0.1 to 1 µM in experiment [2] (HL-60, Table 5); 0.1 to 1 µM in experiment [3] (Table 5).
As for `O=C(Nc1ccc([N+](=O)[O-])cc1Cl)c1ccc2cccnc2c1O` [Compound 82], the IC50 is less than 0.1 µM in experiment [1] (NALM-6, Table 5); 0.1 to 1 µM in experiment [2] (HL-60, Table 5); 0.1 to 1 µM in experiment [3] (Table 5).
`O=C(Nc1cc(Cl)ccc1Cl)c1ccc2cccnc2c1O` [Compound 83]: the IC50 is 0.1 to 1 µM in experiment [1] (NALM-6, Table 5); 1 to 10 µM in experiment [2] (HL-60, Table 5); 0.1 to 1 µM in experiment [3] (Table 5).
Consider `N#Cc1cc(Cl)ccc1NC(=O)c1ccc2cccnc2c1O` [Compound 84], for which the IC50 was 0.1 to 1 µM in experiment [1] (NALM-6, Table 5); 0.1 to 1 µM in experiment [2] (HL-60, Table 5); less than 0.1 µM in experiment [3] (Table 5).
Consider `N#Cc1ccc(NC(=O)c2ccc3cccnc3c2O)c(C#N)c1` [Compound 85], for which the IC50 in experiment [1] (NALM-6, Table 5) was in the range of 0.1 to 1 µM; in experiment [2] (HL-60, Table 5), 0.1 to 1 µM; in experiment [3] (Table 5), 0.1 to 1 µM.
On to `Cc1ccc(C#N)c(NC(=O)c2ccc3cccnc3c2O)c1` [Compound 86], for which the IC50 in experiment [1] (NALM-6, Table 5) lay in the range of 0.1 to 1 µM; in experiment [2] (HL-60, Table 5), 1 to 10 µM; in experiment [3] (Table 5) it was 0.1 to 1 µM.
As for `N#Cc1ccc(NC(=O)c2ccc(-c3ccccc3)cc2O)cc1` [Compound 101], the IC50 is less than 1 µM in experiment [1] (NALM-6, second Table 4); less than 1 µM in experiment [2] (HL-60, second Table 4); less than 1 µM in experiment [3] (second Table 4).
With `O=C(Nc1cc(C(F)(F)F)cc(C(F)(F)F)c1)c1cc(Br)ccc1O` [Compound 159], the IC50 in experiment [1] (NALM-6, second Table 4) is less than 1 µM; in experiment [2] (HL-60, second Table 4), less than 1 µM; in experiment [3] (second Table 4), less than 1 µM.
As to `N#Cc1ccc(NC(=O)c2cc(Cl)c(F)cc2O)cc1` [Compound 161], the IC50 in experiment [1] (NALM-6, second Table 4) was greater than 10 µM; in experiment [2] (HL-60, second Table 4), less than 1 µM; in experiment [3] (second Table 4) it was less than 1 µM.
As for `N#Cc1ccc(NC(=O)c2cc(-c3cc(F)cc(F)c3)ccc2O)cc1` [Compound 233], the half-inhibitory concentration (IC50) lay in the range of 1 to 10 µM in experiment [1] (NALM-6, second Table 4); 1 to 10 µM in experiment [2] (HL-60, second Table 4); 1 to 10 µM in experiment [3] (second Table 4).
In the case of `Oc1ccc(-c2nc(-c3ccncc3)c(-c3ccc(F)cc3)[nH]2)cc1` [SB202190, reference compound], the “effect of combination with Compound A on viability” value in the experiment on HL-60 cells is “additive effects”. Further, in the experiment with CREB phosphorylation, the “compensatory CREB phosphorylation following Compound A treatment” value is recorded as “blocked compensatory CREB phosphorylation”.
On to `COc1cc([C@@H]2c3cc4c(cc3[C@@H](O[C@@H]3O[C@@H]5CO[C@@H](C)O[C@H]5[C@H](O)[C@H]3O)[C@H]3COC(=O)[C@H]23)OCO4)cc(OC)c1O` [etoposide, reference compound], for which the figures for the “relative caspase-3 activity” value in the experiment with Caspase-3 (24 hours) and in the experiment on Caspase-3 (72 hours) were 5.4±0.8 and 1.2±0.05, respectively.
